pIC50: −log10 of the molar value.
system: P. falciparum 3D7 growth, pLDH absorbance; assay: blood-stage malaria parasite growth potency – strain 3D7, dose response (AID 2305)

SMILES	pIC50
COc1ccc2ncc(F)c(CCN3C[C@H](CNCc4ccc(F)cc4)[C@H](O)C3)c2n1	6.09
Cn1ccnc1CNC(=O)c1ccc(-c2ccc(-c3nc4ccc(C(F)(F)F)cc4[nH]3)s2)cc1	6.15
CN(C)C(=O)O[C@@H]1CN[C@H](C#Cc2cc3ncnc(Nc4ccc5c(cnn5Cc5cccc(F)c5)c4)c3s2)C1	6.12
O=C(CN1CCN(C(C(=O)Nc2cc(C(F)(F)F)ccc2Cl)c2ccccc2)CC1)NC1CC1 (stereo not given)	6.36
CCCCCCCc1cc(=O)c2ccccc2[nH]1	6.49
O=[N+]([O-])c1ccc(C(O)CNCCc2ccccc2)cc1OCc1ccccc1 (stereo not given)	6.04
O=C(/C=C/c1ccc(C(F)(F)F)cc1)NCCCCCN1CCN(C(=O)Nc2ccc(Cl)c(Cl)c2)CC1	6.06
CC[C@H]1CN2CC[C@H]1C[C@H]2[C@H](O)c1ccnc2ccc(OC)cc12	6.82
O=C(/C=C/c1ccc(C(F)(F)F)cc1)NCCCCCN1CCCN(C(=O)Nc2ccc(Cl)c(C(F)(F)F)c2)CC1	6.70
COc1cccc(CCNc2nc(NCc3ccccc3)c3cc(OC)c(OC)cc3n2)c1	6.49
COc1ccc(C(F)(F)F)cc1N1CCN(CCCCNC(=O)c2ccc(NC(=O)c3ccc(Cl)cc3)cc2)CC1	6.04
N#Cc1ccc(NC(=O)Nc2ccc3c(c2)CCN(C2CCC2)CC3)cc1	6.20
CCOc1cc(C(=O)NCCCN2CCCCC2C)ccc1-c1nc2ccc(Cl)cc2[nH]1 (stereo not given)	5.97
Cn1cc(CN2CCC(CCOC(c3ccccc3)c3ccccc3)CC2)cn1	6.59
CSc1ccc2nccc(Nc3ccc(Oc4ccccc4)cc3)c2c1	6.06
CC(C)c1cn2c3c(cc(C(=O)N[C@@H](Cc4ccccc4)[C@H](O)CNC4CCOCC4)cc13)N(C)S(=O)(=O)CC2	7.30
Cc1nc(-c2ccc(C(F)(F)F)cn2)sc1C(=O)N1CCc2cc3nccc(N4CCN5CCC[C@H]5C4)c3cc21	6.11
COCCn1c(-c2nc(-c3ccc(F)cc3)cnc2N)nc2ccccc21	6.06
COc1ccccc1C(=O)Nc1ccc(Nc2nc(C)cc(N3CCOCC3)n2)cc1	6.28
CS(=O)(=O)Cc1ccc(Nc2nccc(NC3CCN(c4nccc(C(F)(F)F)n4)CC3)n2)cc1	6.05
N#Cc1ccc(-c2ccc(C(=O)NCCCCN3CCC(c4cn(CCCO)c5ccccc45)CC3)cc2)cc1	6.12
COc1cc(C(=O)NCCCN2CCN(c3cc(Cl)ccc3OC)CC2)ccc1-c1nc2cc(Cl)c(Cl)cc2[nH]1	6.14
Cc1cccc2[nH]c(-c3ccc(-c4cccc(CN5CCN(CCN6CCOCC6)CC5)c4)s3)nc12	6.82
O=C(NC1CC1)c1cnc(N2CCC(OCc3ccccc3)CC2)c(Cl)c1	5.85

SMILES	pIC50
COc1ccc(CNC2CCN(C)CC2)cc1-c1ccc(S(=O)(=O)NCc2ccccc2)c(F)c1	6.10
CC(C)(C)c1ccc(S(=O)(=O)Nc2cc(Cl)ccc2Cn2ccc(N3CCNCC3)nc2=O)cc1	6.08
CN1CCCC(CN2CCN(Cc3ccc(-c4ccc(-c5nc6ccc(F)cc6[nH]5)s4)cc3)CC2)C1 (stereo not given)	6.89
CCN(CC)CCN(Cc1ccc(-c2ccc(C(F)(F)F)cc2)cc1)C(=O)Cn1c(SCc2ccc(F)cc2)nc(=O)c2sccc21	6.00
Cc1ccc(Nc2nc(C)cc(NCc3ccc(-n4ccnc4)cc3)n2)cc1	6.00
CCn1ncc(Cl)c1CN(C)S(=O)(=O)c1ccc2ccccc2c1	6.09
c1ccc2c(Nc3ccc(Oc4ccc(Nc5c6ccccc6nc6ccccc56)cc4)cc3)c3ccccc3nc2c1	6.28
O=c1ccc2ccc(F)cc2n1CCN1CCC(NCc2ccc(-c3ccccn3)s2)CC1	6.05
Cc1cc(NCCc2ccccc2)nc(/N=C(\N)Nc2cccc(Cl)c2)n1	6.74
CN1CC[C@@H](Oc2cc(Nc3nc(-c4ccc(C#N)cc4)cs3)ccc2Cl)C1	6.09
O=C(NC1CCN(c2ccnc3cc(Cl)ccc23)C1)c1ccc(F)cc1F (stereo not given)	6.43
CCN1CCC(N(CCCCCCc2ccc(C(F)(F)F)cc2)C(=O)Cn2c(CCc3cccc(F)c3F)cc(=O)c3ccccc32)CC1	6.03
COc1ccc(-c2nc3c4cc(I)ccc4c4ccccc4c3[nH]2)cc1	5.96
Fc1ccc2nc(-c3ccc(-c4ccc(CNCCN5CCNCC5)cc4)cc3)[nH]c2c1	6.07
COc1ccc(N2C(N)=NC(N)=NC2(C)C)cc1	6.96
C[C@H]1CN(Cc2cccc(-c3cc(CNC(=O)c4cccc(CN5CCN(CCOc6ccccc6)CC5)c4)ccc3F)c2)CCN1	5.95
COc1ccc(O)c(C(=O)c2cnc3c(c2)c(-c2ccc(F)cc2)c(C#N)c(=O)n3C)c1	6.10
CC[C@H](C)CNC(=O)c1cncc(-c2ccc(CNC3CCCC3)cc2)c1	5.95
CCCC(CNCc1ccccc1)CNc1cc(=O)c2ccccc2[nH]1 (stereo not given)	5.99
CCNc1cc(C(=O)N[C@@H](Cc2ccccc2)[C@H](O)CNCCC(C)(C)C)c(F)c(N2CCCCS2(=O)=O)c1	6.10
NCC(=O)NC12CC3CC(CC(C3)C1)C2	5.92
COc1ccc(C(=O)Nc2cc(Br)c3c(c2)CNCC3)cc1Br	6.04
Cc1cccc2[nH]c(-c3cccc(-c4cccc(CNCCNC(=O)c5ccnn5C)c4)c3)nc12	6.72
CC(C)CCCC(C)(C)NC[C@@H](O)[C@H](Cc1ccccc1)NC(=O)c1cccc(CCC2CC2)c1	6.10

SMILES	pIC50
CCC1(c2ccccc2)N=C(N)N(CCCc2ccccc2)C1=O (stereo not given)	6.05
COc1ccc(-c2ccc(Nc3cccc(S(=O)(=O)CCN4CCC(CCN(C)C)CC4)c3)nc2)cn1	5.95
Cc1cccc2[nH]c(-c3ccc(-c4ccc(CNC(C)C)cc4)cc3)nc12	6.17
Cn1c(N)c(C(=O)CSc2nnc(-c3cccs3)n2Cc2ccccc2)c(=O)n(C)c1=O	6.10
Cc1cc(OCC2CCN(c3ncc(C(=O)Nc4ccccc4)cc3Cl)CC2)ccc1F	6.05
CC(=O)NC(c1cccs1)c1cc(Cl)c2cccnc2c1O (stereo not given)	6.49
COc1cc(C(=O)NCCCN2CCN(c3cccc(Cl)c3)CC2)ccc1-c1cc2cc(Cl)c(Cl)cc2[nH]1	6.33
COC(=O)Nc1ccc(-c2ccc(C(=O)NC3CCN(C[C@H](O)c4ccnc5ccc(OC)cc45)CC3)cc2)c(C)c1	6.16
O=C(Nc1cccc(CN2CCN(Cc3cccc(O)c3)CC2)c1)c1cc2ccccc2s1	5.95
O=C(NCC1CCN(Cc2cccc(C(F)(F)F)c2)C1)c1cc(-c2cccc(C(F)(F)F)c2)cs1 (stereo not given)	6.21
CCNc1cc(C(=O)N[C@@H](Cc2ccccc2)[C@H](O)CNC2(CC(C)C)CC2)cc(N2CCCCS2(=O)=O)c1	5.99
CNC(=S)NN=C(C)c1ccccn1	6.57
COc1ccc(CCN(C)CCCOc2ccc(NC(=O)COc3cccc4sc5ccccc5c(=O)c34)cc2)cc1OC	6.34
Cn1cc(C2CCN(CCCCNC(=O)c3sc(-c4ccc(C(F)(F)F)cc4)nc3CO)CC2)c2ccccc21	5.97
C[C@@H](N=C(Nc1ccc(C#N)cc1O)Nc1ccccc1Cl)c1ccc(Br)cc1	6.12
COc1cccc(-c2cnc(-c3ccncc3)nc2C2CCN(Cc3ccc(NC(C)=O)cc3)CC2)c1	5.82
CCc1cc(OC)c(C(=O)NC2CCN(C[C@H](O)c3ccnc4ccc(OC)cc34)CC2)cc1Br	6.09
COc1ccc(-c2csc(NC(=O)CCC(=O)O)n2)cc1OC	6.08
O=C(Nc1cccc(C(F)(F)F)c1)NC1CCN(c2ccnc3cc(Cl)ccc23)C1 (stereo not given)	6.92
O=c1cc(NCCCNCc2cc(Br)ccc2F)[nH]c2ccccc12	6.07
COc1cc(Cc2cnc(N)nc2N)cc(OCCCC#N)c1OC	5.99
C[C@H](Cc1ccc(OCCCCCCOc2ccc(C[C@@H](C)NC[C@H](O)c3cccc(Cl)c3)cc2)cc1)NC[C@H](O)c1cccc(Cl)c1	6.52
Cc1nc(-c2cccc(Nc3nccc(NCC(O)c4ccccc4C)n3)c2)cs1 (stereo not given)	6.05
FC(F)(F)c1ccc2nc(-c3cccc(-c4cccc(CNCCN5CCNCC5)c4)c3)[nH]c2c1	6.03

SMILES	pIC50
Cc1c(C)n(C2CCCC2)c2ncnc(OC3CCN(CC(=O)NC4CC4)CC3)c12	6.10
CC(CCCCCC(=O)Nc1ccc(CC(C)NCCc2cccc(Cl)c2)cc1)NCCc1cccc(Cl)c1 (stereo not given)	6.02
CC(C)CCN=C(N)Nc1ccc(OCCCOc2ccc(NC(N)=NCCC(C)C)cc2)cc1	6.70
Oc1ccc2[nH]c(-c3cccs3)nc2c1CN1CCC(O)(c2ccccc2)CC1	6.11
O=C1NC(C(=O)Nc2ccccc2)C(c2ccccc2)S1 (stereo not given)	6.77
CS(=O)(=O)N1CC2(CCN(CCC(NC(=O)NCc3ccccc3Cl)c3ccc(Cl)c(Cl)c3)CC2)c2ccccc21 (stereo not given)	5.95
COc1cc(C(=O)Nc2ccc(-c3nc4ccccc4[nH]3)cc2)cc(OC)c1OC	6.01
CN1CCC(Oc2ccc(CN3CC[C@H](NC(=O)c4ccc(F)c(F)c4)C3)c3ccccc23)C1 (stereo not given in full)	5.97
CCCO[C@H](C(=O)OC)[C@@H](CC1Cc2ccccc2C1)C(=O)NCCC1=CCCCC1	6.01
Cc1[nH]c2ccccc2c1C=NNc1nc(Nc2ccccc2)nc(Nc2ccccc2)n1	6.03
CCOC(=O)C1=C(C)N=c2sc(=Cc3ccccc3O)c(=O)n2C1c1ccc(OC)c2ccccc12 (stereo not given)	5.90
Fc1cccc(COc2ccc(Nc3ncnc4sc(C#Cc5ncc[nH]5)cc34)cc2Cl)c1	6.89
CC(C)(C)OC(=O)N[C@@H](Cc1ccccc1)C(=O)Nc1cccc(-c2cccc(NC(=O)[C@H](Cc3ccccc3)NC(=O)OC(C)(C)C)c2)c1	6.21
COc1cccc(Nc2c(C(N)=O)cnc3ccc(-c4ccccc4)cc23)c1	6.11
CCNc1cc(C(=O)N[C@@H](Cc2ccccc2)[C@H](O)CNCCc2ccccc2)cc(N2CCCCS2(=O)=O)c1	6.03
N#Cc1cccc(COC(=O)C2=C(COc3ccccc3Cl)NC(=O)NC2c2c[nH]c3cnccc23)c1 (stereo not given)	6.10
CCN(CC)CCCNc1nccc(N2CCc3ncnc(Nc4ccc(OCc5cccc(F)c5)c(Cl)c4)c3C2)n1	6.96
COc1ccc(C(=O)N[C@@H](CC(C)C)C(=O)NC2CC[C@@H](C)N(C(=O)Nc3ccc(Cl)cc3)CC2=O)cc1OCCN1CCOCC1 (stereo not given in full)	6.82
O=C(NCCc1ccccc1F)c1cc(Br)cc(N2CCN(c3ccncc3)CC2)c1	6.12
Cc1cc(NCCC(=O)NCCOc2ccccc2)nc(NCCOc2ccccc2)n1	6.06
OCC1CCN(Cc2ccc(-c3ccc(-c4nc5ccc(C(F)(F)F)cc5[nH]4)cc3)cc2)CC1	6.15
c1ccc(CCNCc2cccc(-c3ccccc3CNCc3ccc4c(c3)OCO4)c2)nc1	6.01
CC(Cc1ccc(NC(=O)CCNCc2ccccc2)cc1)NCCc1cccc(Cl)c1 (stereo not given)	6.82

From PubChem BioAssay AID2305 (GlaxoSmithKline (GSK), 2010)
